Data from patent publication US11072635B2, “Macrocyclic broad spectrum antibiotics” (priority 2015, dated 2021).
In brackets after ≈: the same amount, converted by molar mass. Read-outs that look alike come from different tables or passages of the source.

Tests used:
[1] = system: Escherichia coli ATCC 25922 (E. coli); assay: Minimum inhibitory concentration, broth micro-dilution (CLSI); type: cell-based; conditions: read-out: MIC (μg/mL) E. coli
Procedure: Cells were inoculated onto plates of Trypyticase Soy Agar or Luria Agar respectively and grown at 35° C. for 20 hours. Inocula suspensions were prepared by scraping cells into 1 mL of testing media (cation adjusted Mueller Hinton Broth supplemented with 0.002% v/v Tween-80) and diluting to a final OD600 nm of 0.01.
(§1) Test compounds were prepared in DMSO at a concentration of 10 mg/mL. […] In protocol 2, the compound stocks were diluted into testing media at a concentration of 4 μg/mL and serial 2-fold dilutions were made in the same media, in 96-well U bottom microtiter dishes, for a total of 10 compound concentrations. In protocol 3, compound stocks were diluted into testing media at a concentration of 0.5 μg/mL, with serial 2-fold dilutions conducted as described above. […] Inocula suspensions were added to the 2-fold serial dilutions of test compounds to a final density of OD OD600 nm of 0.0005 and incubated at 35° C. for 22 hours.

[2] = system: Escherichia coli MC4100 harboring the IMP4213 (E. coli IMP); assay: microbe, parasite or virus in culture; type: cell-based; conditions: 22 h, read-out: MIC (μg/mL) E. coli IMP
Procedure: (§2) In vitro antimicrobial activity of each compound was determined by measuring minimal inhibitor concentrations (MICs) using the broth micro-dilution technique as approved by the Clinical and Laboratory Standards Institute (CLSI) (Methods for Dilution Antimicrobial Susceptibility Tests for Bacteria that Grow Aerobically; Approved Standard—Eighth Edition. CLSI document M07-A8. Wayne, Pa.: Clinical and Laboratory Standards; 2009). Antibacterial activity was measure against three strains of bacteria: a Methicillin Resistant Staphylococcus aureus strain USA 300, NRS384 (S. aureus); a strain of Escherichia coli MC4100 harboring the IMP4213 (E. coli IMP), which results in increased outer-membrane permeability (B Martin and Silhavy T. Imp/OstA is required for cell envelope biogenesis in Escherichia coli. (2002) Molecular Microbiology, 45(5), 1289-1302), and Escherichia coli ATCC 25922 (E. coli), a clinically relevant Gram-negative strain. Cells were inoculated onto plates of Trypyticase Soy Agar or Luria Agar respectively and grown at 35° C. for 20 hours. Inocula suspensions were prepared by scraping cells into 1 mL of testing media (cation adjusted Mueller Hinton Broth supplemented with 0.002% v/v Tween-80) and diluting to a final OD600 nm of 0.01.
as §1

[3] = system: Methicillin Resistant Staphylococcus aureus strain USA 300, NRS384 (S. aureus); assay: Minimum inhibitory concentration, broth micro-dilution (CLSI); type: cell-based
Procedure: as §2, §1

[4] = molecular target: T1, SpsB (Staphylococcus aureus signal peptidase) (Staphylococcus aureus, UniProt P0A070); assay: Whole-cell SpsB biochemical screening assay (kinetic fluorogenic enzyme activity)
T1 construct: a suspension of Staphylococcus aureus cells as a source of SpsB instead of recombinant SpsB protein; endogenous in cells; host or cells: S. aureus, USA300 background, overexpressing SpsB (whole-cell suspension)
Procedure: A kinetic fluorogenic enzyme activity assay was used to assess inhibition of SpsB (Staphylococcus aureus signal peptidase) activity and IC50s were determined. This assay uses a suspension of Staphylococcus aureus cells as a source of SpsB instead of recombinant SpsB protein.
Cell preparation: Luria broth (LB) was inoculated with S. aureus (USA300 background, overexpressing SpsB) and shaken at 37° C. until an OD600 nm of 1.5-2.0 was reached (˜4 hr). The culture was then diluted to an OD600 nm of 1.0 with LB, aliquoted and centrifuged at 10,000×g for 2 mins. The supernatant was removed and the pellet was resuspended in phosphate buffer (1×PBS, 12.5 mg/L MgCl2, 25 mg/L CaCl2, 0.1% Tween-80) to an OD600 nm of 0.5, then centrifuged again at 10,000×g for 2 mins. The supernatant was removed and the pellets were frozen at −20° C.
Test compounds were prepared in DMSO at a concentration of 10 mg/mL. These compound stocks were diluted into DMSO to a concentration of 25 μg/mL and serial 3-fold dilutions were made in DMSO, for a total of 11 compound concentrations. 20 nL of each compound solution was pre-spotted into a white 384-well plate (50 μL/well polypropylene, Nunc) using acoustic fluid transfer (Echo).
Frozen S. aureus pellets were resuspended in assay buffer (1×PBS, 12.5 mg/L MgCl2, 25 mg/L CaCl2, 0.1% Tween-80) to an OD600 nm of 0.05, then mixed 1:1 (v/v) with 20 μM substrate ((Dabcyl)βAla-KPAKAAE(Edans)) in assay buffer, and this solution was added (20 μL/well) to the 384-well plate that had been pre-spotted with compound. Fluorescence intensity was then immediately read kinetically for 30 minutes with 2 minute read intervals to monitor cleavage of the internally quenched peptide substrate (excitation wavelength=340 nm, emission wavelength=490 nm, Molecular Devices Spectramax M5). Reaction rate (slope) was plotted against inhibitor concentration to derive the IC50.

[5] = ATCC25922, E. coli ATCC 25922, 35° C., 22 hours
[6] = MRSA / NRS 384 / USA300, MRSA USA 300, NRS384, 35° C., 22 hours, cation adjusted Mueller Hinton Broth with 0.002% Tween-80, read-out: MIC (μg/mL) S. aureus
[7] = MRSA / NRS 384 / USA300, 22 h, read-out: MIC (μg/mL) S. aureus

T1 sequence (P0A070 whole entry): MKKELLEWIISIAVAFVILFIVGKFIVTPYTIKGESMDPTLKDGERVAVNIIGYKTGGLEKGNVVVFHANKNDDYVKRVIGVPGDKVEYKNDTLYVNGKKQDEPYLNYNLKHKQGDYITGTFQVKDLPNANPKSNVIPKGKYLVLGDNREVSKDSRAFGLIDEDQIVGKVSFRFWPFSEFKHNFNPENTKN

SMILES	MIC [1, 5] [µg/mL]	MIC [2] [µg/mL]	MIC [3, 6] [µg/mL]	MIC ([1]; ATCC25922, 22 h) [µg/mL]	MIC [3, 7] [µg/mL]	IC50 [4] [nM]
CCCCCCCc1ccc(C(=O)N[C@@H](CCN)C(=O)N(C)[C@@H]2C(=O)N[C@@H](C)C(=O)N[C@H](C(=O)N[C@@H](C)/C=N/N3CC(=O)NC3=O)Cc3ccc(OCCN)c(c3)-c3cc2ccc3OCCN)c(C)c1 [Compound 102]	8 (≈ 8.26 µM)	0.094 (≈ 0.0971 µM)	0.13 (≈ 0.134 µM)	–	–	–
CCCCCCCc1ccc(C(=O)N[C@@H](CCN)C(=O)N(C)[C@@H]2C(=O)N[C@@H](C)C(=O)N[C@H](C(=O)N[C@@H](C)C(=O)NOC(C)=O)Cc3ccc(OCCN)c(c3)-c3cc2ccc3OCCN)c(C)c1 [Compound 108]	–	0.5 (≈ 0.53 µM)	–	32 (≈ 33.9 µM)	0.75 (≈ 0.794 µM)	–
CCCCCCCc1ccc(C(=O)N[C@@H](CCN)C(=O)N(C)[C@@H]2C(=O)N[C@@H](C)C(=O)N[C@H](C(=O)N[C@@H](C)C(=O)Oc3ccccc3)Cc3ccc(OCCN)c(c3)-c3cc2ccc3OCCN)c(C)c1 [Compound 148]	15.8 (≈ 16.5 µM)	–	0.5 (≈ 0.519 µM)	–	–	–
CCCCc1ccc(-c2ccc(C(=O)N[C@@H](CN)C(=O)N(C)[C@@H]3C(=O)N[C@@H](C)C(=O)N[C@H](C(=O)NC(C)=O)Cc4ccc(OCCN)c(c4)-c4cc3ccc4OCCN)cc2)cc1 [Compound 122]	–	0.094 (≈ 0.109 µM)	–	3 (≈ 3.48 µM)	1.5 (≈ 1.74 µM)	–
CCCCCCCc1ccc(C(=O)N[C@@H](CCN)C(=O)N(C)[C@@H]2C(=O)N[C@@H](C)C(=O)N[C@H](C(=O)N[C@@H](C)C(=O)NOC(N)=O)Cc3ccc(OCCN)c(c3)-c3cc2ccc3OCCN)c(C)c1 [Compound 149]	16.1 (≈ 17.1 µM)	–	0.25 (≈ 0.265 µM)	–	–	–
CCCCCCc1ccc(C(=O)N[C@@H](CCN)C(=O)N(C)[C@@H]2C(=O)N[C@@H](C)C(=O)N[C@H](C(=O)O)Cc3ccc(O)c(c3)-c3cc2ccc3O)c(C)c1 [Compound 146]	–	0.75 (≈ 1.05 µM)	–	> 64	> 4	–
C=CC(=O)N(C)NC(=O)[C@@H]1Cc2ccc(OCCN)c(c2)-c2cc(ccc2OCCN)[C@H](N(C)C(=O)[C@H](CCN)NC(=O)c2ccc(CCCC)cc2C)C(=O)N[C@@H](C)C(=O)N1 [Compound 144]	64 (≈ 74.8 µM)	2 (≈ 2.34 µM)	> 4	–	–	–
CCCCCCCc1ccc(C(=O)N[C@@H](CCN)C(=O)N(C)[C@@H]2C(=O)N[C@@H](C)C(=O)N[C@H](C(=O)O)Cc3ccc(OCCN)c(c3)-c3cc2ccc3OCCN)c(C)c1 [Compound 103]	–	0.0078 (≈ 0.00956 µM)	–	0.75 (≈ 0.919 µM)	0.17 (≈ 0.208 µM)	–
CCCCc1ccc(-c2ccc(C(=O)N[C@@H](CCCN)C(=O)N(C)[C@@H]3C(=O)N[C@@H](C)C(=O)N[C@H](/C=C/C#N)Cc4ccc(OCCN)c(c4)-c4cc3ccc4OCCN)cc2)cc1 [Compound 138]	–	0.5 (≈ 0.583 µM)	–	16 (≈ 18.7 µM)	4 (≈ 4.67 µM)	–
CCCCCCOc1ccc(C(=O)N[C@@H](CCN)C(=O)N(C)[C@@H]2C(=O)N[C@@H](C)C(=O)N[C@H](C(=O)N[C@@H](C)C(=O)c3nnn[nH]3)Cc3ccc(OCCN)c(c3)-c3cc2ccc3OCCN)c(Cl)c1 [Compound 116]	–	0.063 (≈ 0.0655 µM)	–	4 (≈ 4.16 µM)	0.063 (≈ 0.0655 µM)	–
CCCCc1ccc(-c2ccc(C(=O)N[C@@H](CCCN)C(=O)N(C)[C@@H]3C(=O)N[C@@H](C)C(=O)N[C@H](c4nccc(=O)[nH]4)Cc4ccc(OCCN)c(c4)-c4cc3ccc4OCCN)cc2)cc1 [Compound 135]	–	1.5 (≈ 1.67 µM)	–	32 (≈ 35.6 µM)	> 4	–
CCCCCCCc1ccc(C(=O)N[C@@H](CCN)C(=O)N(C)[C@@H]2C(=O)N[C@@H](C)C(=O)N[C@H](C(=O)NS(=O)(=O)CCl)Cc3ccc(OCCN)c(c3)-c3cc2ccc3OCCN)c(C)c1 [Compound 104]	4 (≈ 4.31 µM)	0.023 (≈ 0.0248 µM)	0.75 (≈ 0.809 µM)	–	–	–
CCCCCCCc1ccc(C(=O)N[C@@H](CCN)C(=O)N(C)[C@@H]2C(=O)N[C@@H](C3CC3)C(=O)N[C@H](C(=O)N[C@@H](C)C(C)=O)Cc3ccc(OCCN)c(c3)-c3cc2ccc3OCCN)c(C)c1 [Compound 150]	4.39 (≈ 4.82 µM)	–	0.068 (≈ 0.0746 µM)	–	–	–
C=C(C#N)NC(=O)[C@@H]1Cc2ccc(OCCN)c(c2)-c2cc(ccc2OCCN)[C@H](N(C)C(=O)[C@H](CCCN)NC(=O)c2ccc(-c3ccc(CCCC)cc3)cc2)C(=O)N[C@@H](C)C(=O)N1 [Compound 130]	–	0.13 (≈ 0.144 µM)	–	6 (≈ 6.67 µM)	0.38 (≈ 0.422 µM)	–
CCCCCCCCc1ccc(C(=O)N[C@@H](CCN)C(=O)N(C)[C@@H]2C(=O)N[C@@H](C)C(=O)N[C@H](C(=O)NCC(=O)NCC#N)Cc3ccc(OCCN)c(c3)-c3cc2ccc3OCCN)c(C)c1 [Compound 114]	–	0.13 (≈ 0.141 µM)	–	8 (≈ 8.65 µM)	0.5 (≈ 0.54 µM)	–
CCCCCCCc1ccc(C(=O)N[C@@H](CCN)C(=O)N(C)[C@@H]2C(=O)N[C@@H](C)C(=O)N[C@H](C(=O)NS(=O)(=O)O)Cc3ccc(OCCN)c(c3)-c3cc2ccc3OCCN)c(C)c1 [Compound 111]	–	0.063 (≈ 0.0704 µM)	–	8 (≈ 8.94 µM)	0.25 (≈ 0.279 µM)	–
CCCCc1ccc(-c2ccc(C(=O)N[C@@H](CCCCN)C(=O)N(C)[C@@H]3C(=O)N[C@@H](C)C(=O)N[C@H](C(=O)NCCC#N)Cc4ccc(OCCN)c(c4)-c4cc3ccc4OCCN)cc2)cc1 [Compound 119]	24 (≈ 26.2 µM)	1 (≈ 1.09 µM)	–	–	–	71
CCCCCCCc1ccc(C(=O)N[C@@H](CCN)C(=O)N(C)[C@@H]2C(=O)N[C@@H](C)C(=O)N[C@H](C(=O)NC/C=N/N3CC(=O)NC3=O)Cc3ccc(OCCN)c(c3)-c3cc2ccc3OCCN)c(C)c1 [Compound 101]	4 (≈ 4.19 µM)	0.031 (≈ 0.0325 µM)	0.094 (≈ 0.0985 µM)	–	–	–
C[C@@H]1NC(=O)[C@@H](N(C)C(=O)[C@H](CCCCN)NC(=O)c2ccc(-c3ccc(Cl)cc3)cc2)c2ccc(O)c(c2)-c2cc(ccc2O)C[C@@H](C(=O)NN(C)C(=O)CCl)NC1=O [Compound 145]	–	4 (≈ 4.65 µM)	–	> 64	2 (≈ 2.32 µM)	–
CCCCc1ccc(-c2ccc(C(=O)N[C@@H](CN)C(=O)N(C)[C@@H]3C(=O)N[C@@H](C)C(=O)N[C@H](c4nsc(=O)[nH]4)Cc4ccc(OCCN)c(c4)-c4cc3ccc4OCCN)cc2)cc1 [Compound 132]	–	0.25 (≈ 0.285 µM)	–	8 (≈ 9.11 µM)	4 (≈ 4.56 µM)	–
